From US20240409542A1, “NOVEL COMPOUNDS” (Sitryx Therapeutics Limited, priority 2021, published 2024)
pEC50: −log10 of the molar value. In brackets after ≈: the same amount, converted by molar mass.

Experiments:
recombinant human PKM2 = recombinant human PKM2 (Homo sapiens (Human), UniProt P14618); assay: Human PKM2 activation assay (Kinase-Glo Plus luminescence); format: biochemical; conditions: for pEC50: activation of recombinant human PKM2, 4-parameter logistic fit, read-out: hPKM2 EC50; for Emax: read-out: hPKM2 Emax (%)
Chain of recombinant human PKM2 (P14618 whole entry): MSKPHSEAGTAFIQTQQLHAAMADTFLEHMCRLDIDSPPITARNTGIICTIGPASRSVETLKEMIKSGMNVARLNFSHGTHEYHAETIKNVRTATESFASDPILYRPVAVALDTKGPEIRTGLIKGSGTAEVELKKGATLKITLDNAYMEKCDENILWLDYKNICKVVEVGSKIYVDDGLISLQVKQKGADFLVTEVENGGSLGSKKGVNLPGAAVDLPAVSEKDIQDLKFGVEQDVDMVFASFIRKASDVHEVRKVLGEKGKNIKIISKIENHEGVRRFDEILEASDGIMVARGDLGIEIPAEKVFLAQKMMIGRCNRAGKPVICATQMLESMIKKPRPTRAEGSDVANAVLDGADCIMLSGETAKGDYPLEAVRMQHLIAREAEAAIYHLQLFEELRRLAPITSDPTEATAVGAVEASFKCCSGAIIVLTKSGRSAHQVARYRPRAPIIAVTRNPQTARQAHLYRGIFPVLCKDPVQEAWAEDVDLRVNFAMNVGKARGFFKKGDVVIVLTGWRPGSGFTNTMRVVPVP
Description: Compound activation of recombinant human PKM2 pyruvate kinase activity was determined by biochemical assay. N-terminal His-tagged hPKM2 was sourced from R&D Systems and its substrates phosphoenolpyruvate (PEP) and ADP from Sigma-Aldrich and 2BScientific Ltd, respectively. The Kinase-Glo® Plus luminescence assay was from Promega. All other reagents were from Sigma-Aldrich. Test Compounds were prepared as 10 mM DMSO stocks and dilution series prepared in DMSO for direct dilution into Assay Buffer comprising 50 mM imidazole, 50 mM KCl, 7 mM MgCl2, 0.01% Tween20, 0.05% BSA (pH 7.2).
Human PKM2 was diluted into Assay Buffer comprising 50 mM imidazole, 50 mM KCl, 7 mM MgCl2, 0.01% Tween20, 0.05% BSA (pH 7.2) to a final concentration of 5 pM. Enzyme-Assay Buffer mix was dispensed into a 384-well shallow-well white-walled plate (PerkinElmer) and Test Compounds added by acoustic dispense (Echo®, Labcyte Inc.).
After 60 minutes' incubation on an orbital shaker (300 rpm, 26° C.), enzyme activity was quantified by the luminescent detection of generated ATP. Kinase-Glo® Plus reagent was added to each well and the plates incubated for a further 15 minutes on an orbital shaker in the dark (300 rpm, 26° C.) before luminescence measurement on a plate reader (PHERAstar® FSX, BMG Labtech).
EC50 and Emax values were determined from 4-parameter logistic fits of compound concentration-response curves.

[1] = Kinetic aqueous solubility; conditions: kinetic from dmso stock, Kinetic solubility (Ksol), (μg/ml), PBS pH 7.4, 200 μM (2% DMSO), RT
Description: Phosphate buffered saline (PBS) pH 7.4 was prepared using PBS tablets as per the manufacturer's instructions. Compounds and marker stocks are prepared at 10 mM in DMSO.
Compounds were incubated at 200 μM (2% DMSO) in Millipore—MSS LB PC 10 or Porvair—ref: 36004 plates in the presence of the prepared PBS pH 7.4 solution for 1.5 h, at RT, with gentle shaking. […] The samples were then analysed in a 96 well UV Star analysis plate on a plate reader from 220 nm to 500 nm at 10 nm increments.
The concentration of the samples was calculated against the standard curves.

[2] = phosphate buffered saline (PBS) pH 7.4, pH 7.4, aqueous buffer

| SMILES | pEC50 (recombinant human PKM2) | Emax (recombinant human PKM2) | solubility kinetic at 1.5 h [1, 2] | solubility kinetic at 1.5 h ([1]; phosphate buffered saline, pH 7.4, aqueous buffer) |
| --- | --- | --- | --- | --- |
| Cn1c2c(c3cnn(Cc4cccc(S(C)(=O)=O)c4)c(=O)c31)CCN(S(C)(=O)=O)C2 [Example 31, 5-methyl-7-(methylsulfonyl)-3-(3-(methylsulfonyl)benzyl)-3,5,6,7,8,9-hexahydro-4H-pyrido[4′,3′:4,5]pyrrolo[2,3-d]pyridazin-4-one] | 6.37 | 75.3% | 18.8 µg/mL (≈ 41.8 µM) | – |
| Cn1c2cc([S+](C)[O-])sc2c2cnn(Cc3cccc(N)c3)c(=O)c21 (centres unmarked) [TEPP-46, reference compound] | – | 113% | 0.15 µg/mL (≈ 0.403 µM) | – |
| Cn1c2c(c3cnn(Cc4cccc(S(N)(=O)=O)c4)c(=O)c31)CCN(S(C)(=O)=O)C2 [Example 18, 3-((5-methyl-7-(methylsulfonyl)-4-oxo-4,5,6,7,8,9-hexahydro-3H-pyrido [4′,3′:4,5]pyrrolo[2,3-d]pyridazin-3-yl)methyl)benzenesulfonamide] | 6.40 | 58.7% | 18.3 µg/mL (≈ 40.5 µM) | – |
| Cn1c2c(c3cnn(Cc4cccc(C(C)(C)O)c4)c(=O)c31)CCN(S(C)(=O)=O)C2 [Example 33, 3-(3-(2-hydroxypropan-2-yl)benzyl)-5-methyl-7-(methylsulfonyl)-3,5,6,7,8,9-hexahydro-4H-pyrido[4′,3′:4,5]pyrrolo[2,3-d]pyridazin-4-one] | – | 96.5% | 19.8 µg/mL (≈ 46 µM) | – |
| COCCNS(=O)(=O)N1CCc2c(n(C)c3c(=O)n(Cc4ccc(OC)nc4)ncc23)C1 [Example 28, N-(2-methoxyethyl)-3-((6-methoxypyridin-3-yl)methyl)-5-methyl-4-oxo-3,4,5,6,8,9-hexahydro-7H-pyrido[4′,3′:4,5]pyrrolo[2,3-d]pyridazine-7-sulfonamide] | 6.41 | 56.4% | > 92.5 µg/mL | – |
| Cn1c2c(c3cnn(Cc4n[nH]cc4C(N)=O)c(=O)c31)CCN(S(C)(=O)=O)C2 [Example 17, 3-((5-methyl-7-(methylsulfonyl)-4-oxo-4,5,6,7,8,9-hexahydro-3H-pyrido [4′,3′:4,5]pyrrolo[2,3-d]pyridazin-3-yl)methyl)-1H-pyrazole-4-carboxamide] | 6.05 | 98.8% | 73.1 µg/mL (≈ 180 µM) | – |
| Cn1c2c(c3cnn(Cc4ccsc4CO)c(=O)c31)CCN(S(C)(=O)=O)C2 [Example 13, 3-((2-(hydroxymethyl)thiophen-3-yl)methyl)-5-methyl-7-(methylsulfonyl)-3,5,6,7,8,9-hexahydro-4H-pyrido[4′,3′:4,5]pyrrolo[2,3-d]pyridazin-4-one] | 6.15 | 88.5% | 38 µg/mL (≈ 92.9 µM) | – |
| Cn1c2c(c3cnn(Cc4ccc5cc[nH]c5n4)c(=O)c31)CCN(S(C)(=O)=O)C2 [Example 25, 3-((1H-pyrrolo[2,3-b]pyridin-6-yl)methyl)-5-methyl-7-(methylsulfonyl)-3,5,6,7,8,9-hexahydro-4H-pyrido[4′,3′:4,5]pyrrolo[2,3-d]pyridazin-4-one] | 6.47 | 99.5% | 3.94 µg/mL (≈ 9.55 µM) | – |
| COc1ccc(S(=O)(=O)N2CCc3c(n(C)c4c(=O)n(Cc5c[nH]c6cnccc56)ncc34)C2)cc1 [Example 35, 3-((1H-pyrrolo[2,3-c]pyridin-3-yl)methyl)-7-((4-methoxyphenyl)sulfonyl)-5-methyl-3,5,6,7,8,9-hexahydro-4H-pyrido[4′,3′:4,5]pyrrolo[2,3-d]pyridazin-4-one] | 6.24 | 78.1% | – | – |
| COc1ccc(S(=O)(=O)N2CCc3c(n(C)c4c(=O)n(Cc5ccsc5C(N)=O)ncc34)C2)cc1 [Example 22, 3-((7-((4-methoxyphenyl)sulfonyl)-5-methyl-4-oxo-4,5,6,7,8,9-hexahydro-3H-pyrido[4′,3′:4,5]pyrrolo[2,3-d]pyridazin-3-yl)methyl)thiophene-2-carboxamide] | 6.41 | 76.8% | 2.53 µg/mL (≈ 4.93 µM) | – |
| Cn1c2c(c3cnn(Cc4c[nH]c5ccc(F)cc45)c(=O)c31)CCN(S(C)(=O)=O)C2 [Example 38, 3-((5-fluoro-1H-indol-3-yl)methyl)-5-methyl-7-(methylsulfonyl)-6,7,8,9-tetrahydro-3H-pyrido[4′,3′:4,5]pyrrolo[2,3-d]pyridazin-4(5H)-one] | 6.12 | 93.2% | – | – |
| C[C@H](N)c1cccc(Cn2ncc3c4c(n(C)c3c2=O)CN(S(C)(=O)=O)CC4)c1 [Example 26, (S)-3-(3-(1-aminoethyl)benzyl)-5-methyl-7-(methylsulfonyl)-3,5,6,7,8,9-hexahydro-4H-pyrido[4′,3′:4,5]pyrrolo[2,3-d]pyridazin-4-one] | 6.43 | 81.1% | > 83 µg/mL | – |
| Cn1c2c(c3cnn(Cc4cccc(N5CCCC5)n4)c(=O)c31)CCN(S(C)(=O)=O)C2 [Example 19, 5-methyl-7-(methylsulfonyl)-3-((6-(pyrrolidin-1-yl)pyridin-2-yl)methyl)-3,5,6,7,8,9-hexahydro-4H-pyrido[4′,3′:4,5]pyrrolo[2,3-d]pyridazin-4-one] | 6.06 | 63.8% | 5.42 µg/mL (≈ 12.2 µM) | – |
| Cn1c2c(c3cnn(Cc4csc5ccncc45)c(=O)c31)CCN(S(C)(=O)=O)C2 [Example 34, 5-methyl-7-(methylsulfonyl)-3-(thieno[3,2-c]pyridin-3-ylmethyl)-3,5,6,7,8,9-hexahydro-4H-pyrido[4′,3′:4,5]pyrrolo[2,3-d]pyridazin-4-one] | 6.36 | 82.6% | 1.8 µg/mL (≈ 4.19 µM) | – |
| COCCS(=O)(=O)N1CCc2c(n(C)c3c(=O)n(Cc4ccc(OC)nc4)ncc23)C1 [Example 27, 7-((2-methoxyethyl)sulfonyl)-3-((6-methoxypyridin-3-yl)methyl)-5-methyl-3,5,6,7,8,9-hexahydro-4H-pyrido[4′,3′:4,5]pyrrolo[2,3-d]pyridazin-4-one] | 6.04 | 78% | – | – |

Continued, values first:

| pEC50 (recombinant human PKM2) | Emax (recombinant human PKM2) | solubility kinetic at 1.5 h [1, 2] | solubility kinetic at 1.5 h ([1]; phosphate buffered saline, pH 7.4, aqueous buffer) | SMILES |
| --- | --- | --- | --- | --- |
| 6.50 | 58.3% | – | – | COc1ccc(S(=O)(=O)N2CCc3c(n(C)c4c(=O)n(Cc5ccc6c(c5)CCO6)ncc34)C2)cc1 [Example 23, 3-((2,3-dihydrobenzofuran-5-yl)methyl)-7-((4-methoxyphenyl)sulfonyl)-5-methyl-3,5,6,7,8,9-hexahydro-4H-pyrido[4′,3′:4,5]pyrrolo[2,3-d]pyridazin-4-one] |
| 6.66 | 92.7% | 1.09 µg/mL (≈ 2.54 µM) | – | Cn1c2c(c3cnn(Cc4c[nH]c5cc(F)ccc45)c(=O)c31)CCN(S(C)(=O)=O)C2 [Example 39, 3-((6-fluoro-1H-indol-3-yl)methyl)-5-methyl-7-(methylsulfonyl)-6,7,8,9-tetrahydro-3H-pyrido[4′,3′:4,5]pyrrolo[2,3-d]pyridazin-4(5H)-one] |
| 6.89 | 76.6% | 7.58 µg/mL (≈ 18.4 µM) | – | Cn1c2c(c3cnn(Cc4coc5ccccc45)c(=O)c31)CCN(S(C)(=O)=O)C2 [Example 16, 3-(benzofuran-3-ylmethyl)-5-methyl-7-(methylsulfonyl)-3,5,6,7,8,9-hexahydro-4H-pyrido[4′,3′:4,5]pyrrolo[2,3-d]pyridazin-4-one] |
| 6.57 | 111% | 8.43 µg/mL (≈ 20.4 µM) | – | Cn1c2c(c3cnn(Cc4n[nH]c5ccccc45)c(=O)c31)CCN(S(C)(=O)=O)C2 [Example 20, 3-((1H-indazol-3-yl)methyl)-5-methyl-7-(methylsulfonyl)-3,5,6,7,8,9-hexahydro-4H-pyrido[4′,3′:4,5]pyrrolo[2,3-d]pyridazin-4-one] |
| 6.73 | 90.9% | – | – | Cn1c2c(c3cnn(Cc4ccc5c(c4)CC(C)(C)O5)c(=O)c31)CCN(S(C)(=O)=O)C2 [Example 24, 3-((2,2-dimethyl-2,3-dihydrobenzofuran-5-yl)methyl)-5-methyl-7-(methylsulfonyl)-3,5,6,7,8,9-hexahydro-4H-pyrido[4′,3′:4,5]pyrrolo[2,3-d]pyridazin-4-one] |
| 6.55 | 89% | – | 37.5 µg/mL (≈ 82 µM) | COCCS(=O)(=O)N1CCc2c(n(C)c3c(=O)n(Cc4c[nH]c5cnccc45)ncc23)C1 [Example 29, 3-((1H-pyrrolo[2,3-c]pyridin-3-yl)methyl)-7-((2-methoxyethyl)sulfonyl)-5-methyl-6,7,8,9-tetrahydro-3H-pyrido[4′,3′:4,5]pyrrolo[2,3-d]pyridazin-4(5H)-one] |
| 6.68 | 106% | 59.3 µg/mL (≈ 144 µM) | – | Cn1c2c(c3cnn(Cc4c[nH]c5ncccc45)c(=O)c31)CCN(S(C)(=O)=O)C2 [Example 37, 3-((1H-pyrrolo[2,3-b]pyridin-3-yl)methyl)-5-methyl-7-(methylsulfonyl)-3,5,6,7,8,9-hexahydro-4H-pyrido[4′,3′:4,5]pyrrolo[2,3-d]pyridazin-4-one] |
| 7.00 | 99.9% | 2.49 µg/mL (≈ 6.05 µM) | – | Cn1c2c(c3cnn(Cc4c[nH]c5ccccc45)c(=O)c31)CCN(S(C)(=O)=O)C2 [Example 15, 3-((1H-indol-3-yl)methyl)-5-methyl-7-(methylsulfonyl)-3,5,6,7,8,9-hexahydro-4H-pyrido[4′,3′:4,5]pyrrolo[2,3-d]pyridazin-4-one] |
